Columns and labels:
[1] = xn = mol fraction of the nth substance listed

COCCOCCO [2-(2-methoxyethoxy)ethanol] + O
surface tension liquid-gas [mN/m], [1]
Details	298.15 K	308.15 K	318.15 K
x1 = 0.0374	58.57	57.12	55.97
x1 = 0.0558	55.28	53.9	52.21
x1 = 0.1191	45.14	43.86	43.13
x1 = 0.1951	41.05	39.78	38.96
x1 = 0.3021	40.02	38.8	38.55
x1 = 0.4427	38.27	37.12	36.31
x1 = 0.491	37.57	36.46	35.26
x1 = 0.5502	36.87	35.92	34.53
x1 = 0.7494	35.37	34.49	33.45
x1 = 0.8564	35.02	34.18	33.12
x1 = 1	34.73	33.91	32.95

O [water] + COCCOCCO
[1], x2 = 0
Details	surface tension liquid-gas [mN/m]
298.15 K	71.99
308.15 K	70.38
318.15 K	68.82

COCCOC [1,2-dimethoxyethane] + O
surface tension liquid-gas [mN/m], [1]
Details	x1 = 0.047	x1 = 0.066	x1 = 0.0759	x1 = 0.1286	x1 = 0.1942	x1 = 0.2612	x1 = 0.4132	x1 = 0.6313	x1 = 1
298.15 K	48.35	42.42	40.62	31.96	28.55	27.81	26.08	25.41	23.79
308.15 K	46.83	40.97	39.26	30.69	27.43	26.81	25.12	24.49	22.91
318.15 K	46.47	40.62	37.71	29.26	26.53	25.92	24.78	23.6	21.89

O [water] + COCCOCCOCCO
[1], x2 = 0
Details	surface tension liquid-gas [mN/m]
298.15 K	71.99
308.15 K	70.38
318.15 K	68.82

COCCOC [1,2-dimethoxyethane]
Details	surface tension liquid-gas [mN/m]
298.15 K	23.79
308.15 K	22.91
318.15 K	21.89

COCCOCCOCCO [2-[2-(2-methoxyethoxy)ethoxy]ethanol]
Details	surface tension liquid-gas [mN/m]
298.15 K	36.28
308.15 K	35.79
318.15 K	35.21

— the NIST ThermoML archive (doi:10.1021/je030173e)
